ChEMBL document CHEMBL5696443 (Clin Cancer Res, 2016)
The source made the active and inactive calls. The calls are words filed in the database; no cut-off is given here.

Tests used:
[1] = target: G protein-coupled receptor kinase 6 (Homo sapiens) (UniProt P43250); test: Inhibition of human GRK6 at 1 uM using casein as substrate in presence of [gamma33P]-ATP by HotSpot assay relative to control
[2] = target: Mitogen-activated protein kinase kinase kinase 5 (Homo sapiens) (UniProt Q99683); test: Inhibition of human MAP3K5 at 1 uM using MBP as substrate in presence of [gamma33P]-ATP by HotSpot assay relative to control
[3] = target: Dual specificity tyrosine-phosphorylation-regulated kinase 2 (Homo sapiens) (UniProt Q92630); test: Inhibition of human DYRK2 at 1 uM using RRRFRPASPLRGPPK as substrate in presence of [gamma33P]-ATP by HotSpot assay relative to control
Chain of Dual specificity tyrosine-phosphorylation-regulated kinase 2 (Homo sapiens) (Q92630 whole entry): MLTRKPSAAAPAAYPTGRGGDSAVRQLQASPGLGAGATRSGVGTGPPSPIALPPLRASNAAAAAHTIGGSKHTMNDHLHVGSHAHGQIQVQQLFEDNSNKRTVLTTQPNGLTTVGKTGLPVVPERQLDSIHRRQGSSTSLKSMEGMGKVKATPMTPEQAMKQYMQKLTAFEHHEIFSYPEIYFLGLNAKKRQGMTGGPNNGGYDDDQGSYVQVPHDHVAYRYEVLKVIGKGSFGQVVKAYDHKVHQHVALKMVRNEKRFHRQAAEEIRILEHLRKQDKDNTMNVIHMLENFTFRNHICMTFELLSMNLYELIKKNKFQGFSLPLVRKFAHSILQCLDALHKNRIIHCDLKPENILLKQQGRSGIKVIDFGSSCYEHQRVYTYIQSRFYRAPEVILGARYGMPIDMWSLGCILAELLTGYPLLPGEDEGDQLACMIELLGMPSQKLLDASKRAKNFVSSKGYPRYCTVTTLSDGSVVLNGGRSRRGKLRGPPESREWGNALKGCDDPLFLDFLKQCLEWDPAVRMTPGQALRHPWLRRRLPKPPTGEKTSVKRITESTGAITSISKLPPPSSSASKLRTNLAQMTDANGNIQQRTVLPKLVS

[4] = target: Ribosomal protein S6 kinase alpha-4 (Homo sapiens) (UniProt O75676); test: Inhibition of human RPS6KA4 at 1 uM using GRPRTSSFAEG as substrate in presence of [gamma33P]-ATP by HotSpot assay relative to control
Chain of Ribosomal protein S6 kinase alpha-4 (Homo sapiens) (O75676 whole entry, looked up): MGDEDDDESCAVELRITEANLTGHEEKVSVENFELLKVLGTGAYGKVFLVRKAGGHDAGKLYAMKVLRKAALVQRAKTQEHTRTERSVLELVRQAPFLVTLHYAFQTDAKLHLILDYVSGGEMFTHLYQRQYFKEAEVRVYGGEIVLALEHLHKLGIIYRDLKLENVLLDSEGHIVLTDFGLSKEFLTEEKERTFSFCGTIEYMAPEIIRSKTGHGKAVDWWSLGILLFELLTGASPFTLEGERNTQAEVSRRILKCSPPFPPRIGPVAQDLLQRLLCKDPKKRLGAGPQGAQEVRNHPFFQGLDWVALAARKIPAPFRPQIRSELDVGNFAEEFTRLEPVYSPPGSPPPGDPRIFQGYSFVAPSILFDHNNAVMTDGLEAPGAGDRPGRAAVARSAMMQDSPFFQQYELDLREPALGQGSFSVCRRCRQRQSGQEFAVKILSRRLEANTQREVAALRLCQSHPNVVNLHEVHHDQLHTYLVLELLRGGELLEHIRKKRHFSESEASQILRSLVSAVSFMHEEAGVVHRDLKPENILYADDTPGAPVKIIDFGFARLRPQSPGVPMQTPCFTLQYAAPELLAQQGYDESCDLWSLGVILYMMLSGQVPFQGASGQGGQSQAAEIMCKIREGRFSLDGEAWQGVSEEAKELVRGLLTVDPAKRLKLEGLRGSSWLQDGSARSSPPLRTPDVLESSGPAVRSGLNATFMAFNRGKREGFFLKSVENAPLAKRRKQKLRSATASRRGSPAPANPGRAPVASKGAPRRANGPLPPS

[5] = test system: Epidermal growth factor receptor (Homo sapiens), P00533 [UNDEFINED MUTATION]; conditions: BaF3, time 72.0 hrs
Chain of Epidermal growth factor receptor (Homo sapiens), P00533 [UNDEFINED MUTATION] (P00533 whole entry, looked up, change not shown): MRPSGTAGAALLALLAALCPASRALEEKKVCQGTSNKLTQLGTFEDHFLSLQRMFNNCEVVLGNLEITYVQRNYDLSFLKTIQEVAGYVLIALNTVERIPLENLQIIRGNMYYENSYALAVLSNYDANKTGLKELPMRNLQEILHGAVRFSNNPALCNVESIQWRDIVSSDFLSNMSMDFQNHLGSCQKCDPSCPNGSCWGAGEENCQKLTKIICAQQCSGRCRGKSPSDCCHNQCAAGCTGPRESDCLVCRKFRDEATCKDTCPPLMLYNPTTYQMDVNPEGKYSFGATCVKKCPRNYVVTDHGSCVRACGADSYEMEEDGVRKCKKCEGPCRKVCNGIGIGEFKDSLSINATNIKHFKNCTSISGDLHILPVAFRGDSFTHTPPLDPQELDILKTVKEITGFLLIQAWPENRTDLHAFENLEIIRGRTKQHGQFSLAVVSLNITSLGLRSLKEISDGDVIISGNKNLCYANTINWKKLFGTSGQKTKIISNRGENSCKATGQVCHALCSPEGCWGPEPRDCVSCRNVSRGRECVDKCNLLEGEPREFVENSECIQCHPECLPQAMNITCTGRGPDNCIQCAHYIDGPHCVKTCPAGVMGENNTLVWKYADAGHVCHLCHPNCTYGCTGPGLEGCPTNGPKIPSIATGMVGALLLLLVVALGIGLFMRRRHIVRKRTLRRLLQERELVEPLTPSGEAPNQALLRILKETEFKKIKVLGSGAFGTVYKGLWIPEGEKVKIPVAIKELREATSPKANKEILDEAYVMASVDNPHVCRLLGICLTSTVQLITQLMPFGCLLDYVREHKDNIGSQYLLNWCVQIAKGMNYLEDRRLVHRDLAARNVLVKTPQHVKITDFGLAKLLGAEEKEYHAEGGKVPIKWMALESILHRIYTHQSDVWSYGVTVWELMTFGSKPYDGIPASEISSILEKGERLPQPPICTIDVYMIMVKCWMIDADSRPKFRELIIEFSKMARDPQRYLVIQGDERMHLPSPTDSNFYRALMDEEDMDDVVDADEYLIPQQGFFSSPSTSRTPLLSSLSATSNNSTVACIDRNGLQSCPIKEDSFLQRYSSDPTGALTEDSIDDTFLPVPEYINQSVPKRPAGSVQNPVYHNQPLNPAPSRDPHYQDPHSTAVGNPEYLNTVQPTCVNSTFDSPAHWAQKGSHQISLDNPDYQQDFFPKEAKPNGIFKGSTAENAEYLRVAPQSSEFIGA

[6] = target: Ephrin type-A receptor 3 (Homo sapiens) (UniProt P29320); test: Inhibition of human EPHA3 at 1 uM using poly (Glu, Tyr)4:1 as substrate in presence of [gamma33P]-ATP by HotSpot assay relative to control
[7] = test system: U-937; conditions: time 72 hrs
[8] = target: Tyrosine-protein kinase CSK (Homo sapiens, UniProt P41240); test: Inhibition of human CSK using poly (Glu, Tyr)4:1 as substrate in presence of [gamma33P]-ATP by HotSpot assay
[9] = test system: EML4-ALK (Homo sapiens), Q9UM73+Q9HC35 [G1269A]; conditions: BaF3, time 3-5 weeks
[10] = target: Serine/threonine-protein kinase 17A (Homo sapiens) (UniProt Q9UEE5); test: Inhibition of human STK17A at 1 uM using KKLNRTLSFAEPG as substrate in presence of [gamma33P]-ATP by HotSpot assay relative to control
Chain of Serine/threonine-protein kinase 17A (Homo sapiens) (Q9UEE5 whole entry): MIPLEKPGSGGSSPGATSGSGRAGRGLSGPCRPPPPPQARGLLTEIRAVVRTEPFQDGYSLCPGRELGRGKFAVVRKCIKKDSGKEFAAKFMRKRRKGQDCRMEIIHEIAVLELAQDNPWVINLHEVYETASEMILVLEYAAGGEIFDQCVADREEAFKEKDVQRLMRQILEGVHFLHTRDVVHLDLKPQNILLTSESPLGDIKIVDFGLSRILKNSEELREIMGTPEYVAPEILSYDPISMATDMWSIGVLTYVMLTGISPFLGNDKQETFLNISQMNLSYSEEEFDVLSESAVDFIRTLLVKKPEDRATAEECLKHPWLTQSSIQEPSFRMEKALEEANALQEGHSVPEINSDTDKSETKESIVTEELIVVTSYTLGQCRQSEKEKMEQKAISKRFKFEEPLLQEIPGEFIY

[11] = target: [Pyruvate dehydrogenase (acetyl-transferring)] kinase isozyme 1, mitochondrial (Homo sapiens) (UniProt Q15118); test: Inhibition of human PDK1 at 1 uM using MBP as substrate in presence of [gamma33P]-ATP by HotSpot assay relative to control
[12] = test system: EML4-ALK (Homo sapiens), Q9UM73+Q9HC35 [F1174V]; conditions: BaF3, dose 200.0 nmol/L, time 3-5 weeks
[13] = target: Glycogen synthase kinase-3 alpha (Homo sapiens) (UniProt P49840); test: Inhibition of human GSK3alpha at 1 uM using YRRAAVPPSPSLSRHSSPHQ(pS)EDEEE as substrate in presence of [gamma33P]-ATP by HotSpot assay relative to control
[14] = test system: KARPAS-299; test: Antitumor activity against ALK positive human KARPAS-299 cells xenografted in SCID beige mouse assessed as inhibition of tumor growth administered orally once daily for 14 days; type: functional, cell-based; conditions: dose 10-50 mg/kg, route po, time 14.0 day
[15] = target: Casein kinase I isoform gamma-3 (Homo sapiens) (UniProt Q9Y6M4); test: Inhibition of human CSNK1G3 at 1 uM using KRRRAL[pS]VASLPGL as substrate in presence of [gamma33P]-ATP by HotSpot assay relative to control
[16] = cells; conditions: Homo sapiens, BaF3, 72 h
[17] = target: MAP kinase-activated protein kinase 3 (Homo sapiens) (UniProt Q16644); test: Inhibition of human MAPKAPK3 at 1 uM using KKLNRTLSVA as substrate in presence of [gamma33P]-ATP by HotSpot assay relative to control
Chain of MAP kinase-activated protein kinase 3 (Homo sapiens) (Q16644 whole entry, looked up): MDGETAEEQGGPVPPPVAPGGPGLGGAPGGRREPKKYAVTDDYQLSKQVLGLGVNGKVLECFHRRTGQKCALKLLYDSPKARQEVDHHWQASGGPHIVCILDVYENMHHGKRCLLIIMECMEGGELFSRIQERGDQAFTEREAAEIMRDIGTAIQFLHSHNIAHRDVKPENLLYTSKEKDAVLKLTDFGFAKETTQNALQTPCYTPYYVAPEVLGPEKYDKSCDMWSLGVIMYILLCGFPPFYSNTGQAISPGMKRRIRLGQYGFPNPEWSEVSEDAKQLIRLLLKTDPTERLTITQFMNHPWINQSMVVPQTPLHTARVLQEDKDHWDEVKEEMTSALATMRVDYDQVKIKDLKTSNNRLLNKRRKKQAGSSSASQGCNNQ

[18] = target: MAP/microtubule affinity-regulating kinase 3 (Homo sapiens, UniProt P27448); test: Inhibition of human MARK3 using KKKVSRSGLYRSPSMPENLNRPR as substrate in presence of [gamma33P]-ATP by HotSpot assay
Chain of MAP/microtubule affinity-regulating kinase 3 (P27448 whole entry): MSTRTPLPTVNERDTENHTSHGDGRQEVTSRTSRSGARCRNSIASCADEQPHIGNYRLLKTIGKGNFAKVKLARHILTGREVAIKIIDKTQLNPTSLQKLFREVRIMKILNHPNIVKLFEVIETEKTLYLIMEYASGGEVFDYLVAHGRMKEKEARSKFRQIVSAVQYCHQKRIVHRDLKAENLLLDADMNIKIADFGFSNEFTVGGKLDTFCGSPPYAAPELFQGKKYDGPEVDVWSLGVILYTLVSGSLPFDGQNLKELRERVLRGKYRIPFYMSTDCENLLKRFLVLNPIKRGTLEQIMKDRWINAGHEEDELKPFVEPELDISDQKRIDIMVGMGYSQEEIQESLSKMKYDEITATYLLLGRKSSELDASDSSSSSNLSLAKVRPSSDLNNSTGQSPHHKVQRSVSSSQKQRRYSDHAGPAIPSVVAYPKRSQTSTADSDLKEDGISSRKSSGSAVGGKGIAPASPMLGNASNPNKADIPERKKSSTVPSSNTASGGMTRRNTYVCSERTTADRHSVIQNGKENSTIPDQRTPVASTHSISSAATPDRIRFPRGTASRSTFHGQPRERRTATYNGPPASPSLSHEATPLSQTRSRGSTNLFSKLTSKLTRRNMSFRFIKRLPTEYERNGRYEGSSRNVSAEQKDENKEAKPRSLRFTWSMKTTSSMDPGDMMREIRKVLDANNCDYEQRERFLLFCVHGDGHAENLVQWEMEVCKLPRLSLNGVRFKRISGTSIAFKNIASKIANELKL

[19] = test system: EML4-ALK (Homo sapiens), Q9UM73+Q9HC35 [S1206F]; conditions: BaF3, dose 500.0 nmol/L, time 3-5 weeks
[20] = target: Ephrin type-B receptor 1 (Homo sapiens, UniProt P54762); test: Inhibition of human EPHB1 using poly (Glu, Tyr)4:1 as substrate in presence of [gamma33P]-ATP by HotSpot assay
[21] = test system: NCI-H2228; conditions: time 72 hrs
[22] = target: Mitogen-activated protein kinase 8 (Homo sapiens) (UniProt P45983); test: Inhibition of human JNK1a1 at 1 uM using ATF2 as substrate in presence of [gamma33P]-ATP by HotSpot assay relative to control
Chain of Mitogen-activated protein kinase 8 (Homo sapiens) (P45983 whole entry): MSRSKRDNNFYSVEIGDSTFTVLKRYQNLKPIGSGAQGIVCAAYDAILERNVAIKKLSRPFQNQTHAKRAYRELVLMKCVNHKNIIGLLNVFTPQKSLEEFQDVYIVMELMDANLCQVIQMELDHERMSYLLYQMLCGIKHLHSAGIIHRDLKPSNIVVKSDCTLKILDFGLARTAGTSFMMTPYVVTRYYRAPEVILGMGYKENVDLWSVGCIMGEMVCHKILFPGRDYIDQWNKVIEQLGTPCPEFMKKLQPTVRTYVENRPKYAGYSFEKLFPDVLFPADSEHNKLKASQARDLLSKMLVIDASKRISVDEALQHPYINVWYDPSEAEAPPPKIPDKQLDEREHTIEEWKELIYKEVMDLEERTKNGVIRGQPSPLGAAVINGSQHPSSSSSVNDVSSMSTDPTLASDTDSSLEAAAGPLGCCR

[23] = test system: BaF3; test: In vivo inhibition of ALK signaling in mouse implanted with mouse BaF3 cells expressing EML4-ALK L1196M mutant assessed as inhibition of ALK phosphorylation at 25 mg/kg, po administered as single dose and measured at 6 to 24 hrs by ELISA; type: functional, organism-based; conditions: time 6-24 hrs
[24] = target: Mitogen-activated protein kinase 11 (Homo sapiens) (UniProt Q15759); test: Inhibition of human MAPK11 at 1 uM using MBP as substrate in presence of [gamma33P]-ATP by HotSpot assay relative to control
Chain of Mitogen-activated protein kinase 11 (Homo sapiens) (Q15759 whole entry): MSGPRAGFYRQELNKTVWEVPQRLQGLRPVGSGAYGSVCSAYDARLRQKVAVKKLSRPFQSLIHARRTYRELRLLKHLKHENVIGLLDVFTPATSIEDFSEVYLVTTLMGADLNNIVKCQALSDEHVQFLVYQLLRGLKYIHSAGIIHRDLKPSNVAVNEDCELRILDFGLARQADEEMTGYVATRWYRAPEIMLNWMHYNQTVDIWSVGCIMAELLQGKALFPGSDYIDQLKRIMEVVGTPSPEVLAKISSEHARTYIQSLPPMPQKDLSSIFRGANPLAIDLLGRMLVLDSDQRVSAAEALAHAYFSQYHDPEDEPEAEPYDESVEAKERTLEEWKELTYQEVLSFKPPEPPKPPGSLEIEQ

[25] = Toxicity in SCID Beige mouse xenografted with ALK positive human KARPAS-299 cells assessed as effect on body weight at 10 to 50 mg/kg; type: organism-based; conditions: in vivo, dose 10-50 mg/kg
[26] = target: Dual specificity tyrosine-phosphorylation-regulated kinase 1A (Homo sapiens) (UniProt Q13627); test: Inhibition of human DYRK1A at 1 uM using RRRFRPASPLRGPPK as substrate in presence of [gamma33P]-ATP by HotSpot assay relative to control
[27] = target: Serine/threonine-protein kinase PAK 1 (Homo sapiens) (UniProt Q13153); test: Inhibition of human PAK1 at 1 uM using RRRLSFAEPG as substrate in presence of [gamma33P]-ATP by HotSpot assay relative to control
[28] = target: Mitogen-activated protein kinase kinase kinase 9 (Homo sapiens, UniProt P80192); test: Inhibition of human MAP3K9 using casein as substrate in presence of [gamma33P]-ATP by HotSpot assay
[29] = target: Ribosomal protein S6 kinase alpha-1 (Homo sapiens, UniProt Q15418); test: Inhibition of human RPS6KA1 using KKLNRTLSVA as substrate in presence of [gamma33P]-ATP by HotSpot assay

COc1cc(N2CCC(N3CCN(C)CC3)CC2)ccc1Nc1ncc(Cl)c(Nc2ccccc2P(C)(C)=O)n1 [BRIGATINIB]
inhibition [1]: < 90%
inhibition [2]: < 90%
inhibition [3]: < 90%
inhibition [4]: < 90%
IC90 [5]: 0.314 µM
inhibition [6]: < 90%
GI50 [7]: 2.39 µM
IC50 [8]: 0.329 µM
IC90 [9]: 0.022 µM
inhibition [10]: < 90%
inhibition [11]: < 90%
inhibition [12]: inactive
inhibition [13]: < 90%
Activity [14]: Dose-Dependent Effect
inhibition [15]: < 90%
IC50 [16]: 0.017 µM
inhibition [17]: < 90%
IC50 [18]: 0.127 µM
inhibition [19]: Active
IC50 [20]: > 1 µM
GI50 [21]: 0.01 µM
inhibition [22]: < 90%
inhibition [23]: Active
inhibition [24]: < 90%
Activity [25]: Non-Toxic
inhibition [26]: < 90%
inhibition [27]: < 90%
IC50 [28]: 0.218 µM
IC50 [29]: 0.03 µM
